Source: patent publication US11555012B2 (Nimbus Artemis, Inc., priority 2018, dated 2023)
pIC50: −log10 of the molar value. Read-outs that look alike come from different tables or passages of the source.

Columns and labels:
ACL [1] = target: T1, ACL (Homo sapiens (Human), UniProt P53396); assay: ACLY-MDH Coupled Assay
Target sequence in this assay (P53396 whole entry, species assumed): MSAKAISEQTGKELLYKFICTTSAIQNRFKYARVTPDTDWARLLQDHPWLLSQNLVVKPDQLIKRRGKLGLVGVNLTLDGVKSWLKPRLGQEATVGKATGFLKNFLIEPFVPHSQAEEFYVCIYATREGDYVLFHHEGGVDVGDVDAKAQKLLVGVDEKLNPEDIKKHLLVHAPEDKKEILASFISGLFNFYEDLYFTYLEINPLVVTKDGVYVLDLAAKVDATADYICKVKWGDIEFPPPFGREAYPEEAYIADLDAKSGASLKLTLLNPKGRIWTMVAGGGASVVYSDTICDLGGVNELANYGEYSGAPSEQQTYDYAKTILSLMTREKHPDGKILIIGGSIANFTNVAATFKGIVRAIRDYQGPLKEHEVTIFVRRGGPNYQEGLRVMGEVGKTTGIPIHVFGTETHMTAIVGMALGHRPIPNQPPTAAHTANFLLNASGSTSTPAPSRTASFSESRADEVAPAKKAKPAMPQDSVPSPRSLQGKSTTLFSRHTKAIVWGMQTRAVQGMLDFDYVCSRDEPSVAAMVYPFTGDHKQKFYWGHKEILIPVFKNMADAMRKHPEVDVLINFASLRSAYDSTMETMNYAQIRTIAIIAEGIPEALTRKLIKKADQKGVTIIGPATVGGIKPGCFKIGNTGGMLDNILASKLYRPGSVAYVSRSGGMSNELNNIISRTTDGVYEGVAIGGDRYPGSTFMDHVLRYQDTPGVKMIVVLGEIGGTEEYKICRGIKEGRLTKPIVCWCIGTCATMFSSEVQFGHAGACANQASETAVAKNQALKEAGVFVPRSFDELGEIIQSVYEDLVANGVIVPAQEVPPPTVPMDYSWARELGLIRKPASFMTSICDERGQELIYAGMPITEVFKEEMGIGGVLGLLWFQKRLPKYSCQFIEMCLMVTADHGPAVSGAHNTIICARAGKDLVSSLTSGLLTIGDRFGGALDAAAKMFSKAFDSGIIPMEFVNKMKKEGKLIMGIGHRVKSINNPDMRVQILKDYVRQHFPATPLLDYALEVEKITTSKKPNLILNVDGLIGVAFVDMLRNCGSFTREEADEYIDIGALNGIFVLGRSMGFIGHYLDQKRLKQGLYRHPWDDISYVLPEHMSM
Method: Compounds of the present invention were evaluated in an ACLY Coupled Assay.
The assay protocol for the Coupled Assay (below) was followed:
b) Add 1 μL cpds to 96 assay plate, Test cpd conc: 100/30/10 μM top dose, 3 folds dilution, 10+0+control (control: buffer without ACL+DMSO) points, 1000 rpm for 1 min, incubation at 25° C. for 60 min

ACL [2] = target: T1, ACL; assay: ADP-Glo Assay
Target sequence in this assay (P53396 other isoform, or with tags, fused parts or gaps isoform P53396-2): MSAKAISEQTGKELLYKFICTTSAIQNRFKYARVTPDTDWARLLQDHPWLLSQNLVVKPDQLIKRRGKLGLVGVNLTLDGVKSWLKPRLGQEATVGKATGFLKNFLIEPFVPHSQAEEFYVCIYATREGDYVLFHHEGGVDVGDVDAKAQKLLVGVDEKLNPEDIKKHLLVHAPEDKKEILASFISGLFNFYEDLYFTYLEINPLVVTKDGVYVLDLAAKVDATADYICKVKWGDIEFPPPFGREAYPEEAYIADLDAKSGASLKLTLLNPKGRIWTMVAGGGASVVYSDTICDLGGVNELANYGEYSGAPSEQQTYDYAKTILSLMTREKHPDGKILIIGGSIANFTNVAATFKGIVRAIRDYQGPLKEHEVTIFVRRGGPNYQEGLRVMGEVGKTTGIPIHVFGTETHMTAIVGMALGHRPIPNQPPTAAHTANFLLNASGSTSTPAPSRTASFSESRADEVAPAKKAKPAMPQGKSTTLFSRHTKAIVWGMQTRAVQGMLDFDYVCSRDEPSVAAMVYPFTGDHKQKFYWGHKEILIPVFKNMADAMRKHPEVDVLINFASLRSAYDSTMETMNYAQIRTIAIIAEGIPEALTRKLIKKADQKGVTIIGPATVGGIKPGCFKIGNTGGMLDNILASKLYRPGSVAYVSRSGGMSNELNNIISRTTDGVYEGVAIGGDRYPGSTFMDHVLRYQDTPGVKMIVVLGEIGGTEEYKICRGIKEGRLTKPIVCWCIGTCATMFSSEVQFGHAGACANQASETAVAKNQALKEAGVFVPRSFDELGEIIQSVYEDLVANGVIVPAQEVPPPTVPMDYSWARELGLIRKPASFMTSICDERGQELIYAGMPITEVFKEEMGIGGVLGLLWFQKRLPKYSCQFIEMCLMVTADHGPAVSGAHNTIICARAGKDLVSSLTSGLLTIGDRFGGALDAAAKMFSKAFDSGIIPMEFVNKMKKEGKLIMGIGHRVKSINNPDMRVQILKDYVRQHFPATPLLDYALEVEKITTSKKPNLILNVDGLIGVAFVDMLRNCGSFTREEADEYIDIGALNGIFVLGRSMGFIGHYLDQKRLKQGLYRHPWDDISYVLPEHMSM

HepG2 cells [3] = settings: Homo sapiens, HepG2, read-out: ACLY HepG2 14C-Pyruvate Assay serum free IC50 FA (IC50) [μM]
Method: ACLY HepG2 ^14C-Pyruvate Incorporation Serum-Free Assay (IC50 Fatty
The protocol of the assay (below) was followed:
(§1) After 48 hours, change medium with fresh growth medium.
(§2) After 18 hours, replaced medium using 0.5 mL fresh medium (5.5 mM Glucose, without FBS, 1% PS, without Pyruvate) containing Compounds or 0.5% DMSO, incubated at 37° C., 5% CO2 for 1 hour.
(§3) Add 3 μci of [14C]-pyruvate per well to the cell samples were incubated at 37° C., 5% CO2 for 5 hours.
Medium was removed and placed into a 15 mL centrifuge tube. Add 0.5 mL of 0.1M NaOH to each well and then transfer the cell lysates into the corresponding 15 mL centrifuge tubes. 1.0 mL of EtOH and 0.17 mL 50% KOH were added to 15 mL tubes containing medium and cell suspensions, then shaking tube gently. […] Saponification 15 mL tubes containing medium and cell suspensions were incubated at 90° C. for 1 hour, then cooled to room temperature. […] Cholesterol Extraction 5 mL of petroleum ether was added per tube to extract Cholesterol, shaken vigorously, centrifuged at 1000 rpm for 5 min, and ˜5 mL of the petroleum ether layer was transferred to a new glass tube (18*180 mm). […] Acidification The samples in 15 mL tube were acidified directly with 1 mL concentrated HCl, make sure pH was below 1. […] Fatty Acids Extraction 5 mL of petroleum ether was added per tube, shaken vigorously, centrifuged at 1000 rpm for 5 min, 5 mL of the petroleum ether layer was transferred to the corresponding glass tube. […] Repeat the Step 8 10. Count The petroleum ether extracts were pooled and evaporated to dryness overnight. The residue from the petroleum ether fractions were resuspended in 500 μL of chloroform-hexane (1:1) containing 420 μg of linoleic acid as a carrier. Add 200 μL of resuspending (chloroform-hexane (1:1) containing 168 μg of linoleic acid) to 2 mL Ultima Gold™, after 30 min, count on a scintillation counter.

HepG2 cells [4] = settings: Homo sapiens, HepG2, read-out: ACLY HepG2 14C-Pyruvate Assay serum free IC50 Cholesterol (IC50) [μM]
Method: ACLY HepG2 ^14C-Pyruvate Incorporation Serum-Free Assay (IC50 Cholesterol and Fatty Acid Synthesis)
Compounds of the present invention were evaluated in a HepG2 ^14C-pyruvate incorporation assay. The protocol below was followed:
as §1, §2, §3
Medium was removed and placed into a 15 mL centrifuge tube. Add 0.5 mL of 0.1M NaOH to each well and then transfer the cell lysates into the corresponding 15 mL centrifuge tubes. 1.0 mL of EtOH and 0.17 mL 50% KOH were added to 15 mL tubes containing medium and cell suspensions, then shaking tube gently. […] Saponification 15 mL tubes containing medium and cell suspensions were incubated at 90° C. for 1 hour, then cooled to room temperature. […] Cholesterol Extraction 5 mL of petroleum ether was added per tube to extract Cholesterol, shaken vigorously, centrifuged at 1000 rpm for 5 min, and ˜5 mL of the petroleum ether layer was transferred to a new glass tube (18*180 mm). […] Acidification The samples in 15 mL tube were acidified directly with 1 mL concentrated HCl, make sure pH was below 1. […] Fatty Acids Extraction 5 mL of petroleum ether was added per tube, shaken vigorously, centrifuged at 1000 rpm for 5 min, 5 mL of the petroleum ether layer was transferred to the corresponding glass tube. […] Count The petroleum ether extracts were pooled and evaporated to dryness overnight. The residue from the petroleum ether fractions were resuspended in 500 μL of chloroform-hexane (1:1) containing 420 μg of linoleic acid as a carrier. Add 200 μL of resuspending (chloroform-hexane (1:1) containing 168 μg of linoleic acid) to 2 mL Ultima Gold™, after 30 min, count on a scintillation counter.

[5] = read-out: ACL-MDH Coupled Assay (IC50), 8 nM ACL, 60 μM CoA Na2, 85 μM Citrate, 250 μM ATP, 250 μM NADH
[6] = read-out: ACL-ADP-Glo (IC50), 3 nM ACL, 15 μM ATP, 3 μM CoA, 300 μM Citrate

pIC50 (ACL [1]; [5]) | pIC50 (ACL [2]; [6]) | IC50 (HepG2 cells [3]) [µM] | IC50 (HepG2 cells [4]) [µM] | pIC50 (ACL [1]) | pIC50 (ACL [2]) | SMILES | pIC50 (ACL [2]; read-out: ACL-ADP-Glo (IC50))
> 7.30 | > 7.30 | 1 to 10 | < 1 | – | – | COC(=O)c1cc(Cl)c(O)c(S(=O)(=O)Nc2cc(-c3cccs3)ccc2F)c1 [I-60, Methyl 3-chloro-5-[[2-fluoro-5-(thiophen-2-yl)phenyl]sulfamoyl]-4-hydroxybenzoate] | –
> 7.30 | > 7.30 | > 10 | 1 to 5 | – | – | O=C(c1cc(Cl)c(O)c(S(=O)(=O)Nc2cc(-c3ccccc3)c(F)cc2F)c1)N1CCCC1 [I-82, 3-chloro-N-(4,6-difluoro-[1,1′-biphenyl]-3-yl)-2-hydroxy-5-(pyrrolidine-1-carbonyl)benzenesulfonamide] | –
> 7.30 | > 7.30 | > 10 | 1 to 5 | – | – | CC(C)OC(=O)c1cc(Cl)c(O)c(S(=O)(=O)Nc2cc(-c3ccccc3)c(F)cc2F)c1 [I-86, propan-2-yl 3-chloro-5-[(2,4-difluoro-5-phenylphenyl)sulfamoyl]-4-hydroxybenzoate] | –
> 7.30 | > 7.30 | > 10 | 1 to 5 | – | – | CON(C)C(=O)c1cc(Cl)c(O)c(S(=O)(=O)Nc2cc(-c3ccccc3)c(F)cc2F)c1 [I-87, 3-chloro-5-[(2,4-difluoro-5-phenylphenyl)sulfamoyl]-4-hydroxy-N-methoxy-N-methylbenzamide] | –
> 7.30 | > 7.30 | > 10 | 1 to 5 | – | – | O=S(=O)(Nc1cc(-c2ccccc2)c(F)cc1F)c1cc(Br)cc(Cl)c1O [I-88, 5-bromo-3-chloro-N-[4,6-difluoro-[1,1-biphenyl]-3-yl]-2-hydroxybenzene-1-sulfonamide] | –
– | – | > 10 | 1 to 5 | 6.30 to 7.30 | 6.30 to 7.30 | O=S(=O)(Nc1cc(-c2ccccc2)c(F)cc1F)c1cc(CO)cc(Cl)c1O [I-90, 3-chloro-N-(2,4-difluoro-5-phenylphenyl)-2-hydroxy-5-(hydroxymethyl)benzene-1-sulfonamide] | –
– | – | 1 to 10 | 1 to 5 | 6.30 to 7.30 | 6.30 to 7.30 | COCc1cc(Cl)c(O)c(S(=O)(=O)Nc2cc(-c3ccccc3)c(F)cc2F)c1 [I-91, 3-chloro-N-(2,4-difluoro-5-phenylphenyl)-2-hydroxy-5-(methoxymethyl)benzene-1-sulfonamide] | –
> 7.30 | > 7.30 | > 10 | 1 to 5 | – | – | O=C(c1cc(Cl)c(O)c(S(=O)(=O)Nc2cc(-c3ccccc3)c(F)cc2F)c1)N1CCC1 [I-98, 5-(azetidine-1-carbonyl)-3-chloro-N-(4,6-difluoro-[1,1′-biphenyl]-3-yl)-2-hydroxybenzenesulfonamide] | –
> 7.30 | > 7.30 | > 10 | < 1 | – | – | CCC(=O)c1cc(Cl)c(O)c(S(=O)(=O)Nc2cc(-c3ccccc3)c(F)cc2F)c1 [I-101, 3-chloro-N-(2,4-difluoro-5-phenylphenyl)-2-hydroxy-5-propanoylbenzene-1-sulfonamide] | –
– | – | > 10 | 1 to 5 | 4.52 to 6.30 | 4.70 to 6.30 | COC(=O)c1cc(Cl)c(O)c(S(=O)(=O)Nc2ccc(F)c(-c3ccccc3)c2F)c1 [I-110, Methyl 3-chloro-5-[(2,4-difluoro-3-phenylphenyl)sulfamoyl]-4-hydroxybenzoate] | –
> 7.30 | > 7.30 | > 10 | 1 to 5 | – | – | COC(=O)c1cc(Cl)c(O)c(S(=O)(=O)Nc2cc(-c3ccccc3)cc(F)c2F)c1 [I-111, Methyl 3-chloro-5-[(2,3-difluoro-5-phenylphenyl)sulfamoyl]-4-hydroxybenzoate] | –
– | – | 1 to 10 | 1 to 5 | 4.52 to 6.30 | 4.70 to 6.30 | O=S(=O)(Nc1cc(-c2ccccc2)ccc1F)c1cc(Br)ccc1O [I-113, N5-bromo-N-(2-fluoro-5-phenylphenyl)-2-hydroxybenzene-1-sulfonamide] | –
> 7.30 | > 7.30 | > 10 | 1 to 5 | – | – | O=S(=O)(Nc1cc(-c2ccccc2)c(F)cc1F)c1cc(-c2ncco2)cc(Cl)c1O [I-116, 3-chloro-N-[4,6-difluoro-[1,1-biphenyl]-3-yl]-2-hydroxy-5-(1,3-oxazol-2-yl)benzene-1-sulfonamide] | –
> 7.30 | > 7.30 | 1 to 10 | 1 to 5 | – | – | O=S(=O)(Nc1cc(-c2ccccc2)c(F)cc1F)c1cc(C(F)(F)F)cc(Cl)c1O [I-117, 3-chloro-N-(4,6-difluoro-[1,1′-biphenyl]-3-yl)-2-hydroxy-5-(trifluoromethyl)benzenesulfonamide] | –
– | > 7.30 | 1 to 10 | 1 to 5 | 6.30 to 7.30 | – | COC(=O)c1cc(Cl)c(O)c(S(=O)(=O)Nc2cc(-c3ccccc3)c(F)cc2F)c1C [I-126, Methyl 5-chloro-3-([4,6-difluoro-[1,1-biphenyl]-3-yl]sulfamoyl)-4-hydroxy-2-methylbenzoate] | –
> 7.30 | > 7.30 | > 10 | 1 to 5 | – | – | COC(=O)c1cc(Cl)c(O)c(S(=O)(=O)Nc2cc(C3CC3)c(F)cc2F)c1 [I-127, Methyl 3-chloro-5-[(5-cyclopropyl-2,4-difluorophenyl)sulfamoyl]-4-hydroxybenzoate] | –
> 7.30 | > 7.30 | > 10 | 5 to 20 | – | – | COC(=O)c1cc(Cl)c(O)c(S(=O)(=O)Nc2cc(-c3cc4ccccc4s3)c(F)cc2F)c1 [I-128, Methyl 3-[[5-(1-benzothiophen-2-yl)-2,4-difluorophenyl]sulfamoyl]-5-chloro-4-hydroxybenzoate] | –
– | – | 1 to 10 | 1 to 5 | 6.30 to 7.30 | 6.30 to 7.30 | O=S(=O)(Nc1cc(-c2ccccc2)c(F)cc1F)c1cc(F)cc(Cl)c1O [I-135, 3-chloro-N-[4,6-difluoro-[1,1-biphenyl]-3-yl]-5-fluoro-2-hydroxybenzene-1-sulfonamide] | –
> 7.30 | > 7.30 | > 10 | 1 to 5 | – | – | COC(=O)c1cc(Cl)c(O)c(S(=O)(=O)Nc2cc(C(C)C)c(F)cc2F)c1 [I-198, Methyl 3-chloro-5-(N-(2,4-difluoro-5-isopropylphenyl)sulfamoyl)-4-hydroxybenzoate] | –
– | – | 1 to 10 | 1 to 5 | 6.30 to 7.30 | 6.30 to 7.30 | O=C(O)c1ccc(-c2ccccc2)cc1NS(=O)(=O)c1cc(Cl)cc(Cl)c1 [I-208, 3-((3,5-dichlorophenyl)sulfonamido)-[1,1′-biphenyl]-4-carboxylic Acid] | –
– | – | 1 to 10 | 1 to 5 | 6.30 to 7.30 | 6.30 to 7.30 | CC(C)C(=O)Oc1c(Cl)cc(-c2cncs2)cc1S(=O)(=O)Nc1cc(-c2ccccc2)c(F)cc1F [I-213, 2-chloro-6-(N-(4,6-difluoro-[1,1′-biphenyl]-3-yl)sulfamoyl)-4-(thiazol-5-yl)phenyl Isobutyrate] | –
– | – | 1 to 10 | 5 to 20 | 6.30 to 7.30 | 4.70 to 6.30 | O=C(O)c1ccc(-c2ccccc2)cc1NS(=O)(=O)c1cc(F)cc(Cl)c1 [I-233, 3-((3-chloro-5-fluorophenyl)sulfonamido)-[1,1′-biphenyl]-4-carboxylic acid] | –
– | – | > 10 | 1 to 5 | 4.52 to 6.30 | 4.70 to 6.30 | O=S(=O)(Nc1ccc(-c2ccccn2)cc1F)c1cc(Cl)cc(Cl)c1O [I-235, 3,5-dichloro-N-(2-fluoro-4-(pyridin-2-yl)phenyl)-2-hydroxybenzenesulfonamide] | –
– | > 7.30 | > 10 | 1 to 5 | 6.30 to 7.30 | – | O=C(Oc1c(Cl)cc(C(=O)N2CCC2)cc1S(=O)(=O)Nc1cc(-c2ccccc2)c(F)cc1F)C1CC1 [I-236, 4-(azetidine-1-carbonyl)-2-chloro-6-(N-(4,6-difluoro-[1,1′-biphenyl]-3-yl)sulfamoyl)phenyl cyclopropanecarboxylate] | –
– | – | 1 to 10 | 1 to 5 | 4.52 to 6.30 | 4.70 to 6.30 | O=C(Nc1cc(-c2ccccc2)ccc1C(=O)O)c1cc(Cl)cc(Cl)c1 [I-260, 3-(3,5-dichlorobenzamido)-[1,1′-biphenyl]-4-carboxylic Acid] | –
– | – | > 10 | 1 to 5 | 4.52 to 6.30 | 4.70 to 6.30 | O=S(=O)(Nc1cc(-c2ccccc2)c(F)cc1F)c1cc(CN2CCC2)cc(Cl)c1O [I-272, 5-(azetidin-1-ylmethyl)-3-chloro-N-(4,6-difluoro-[1,1′-biphenyl]-3-yl)-2-hydroxybenzenesulfonamide] | –

SMILES | pIC50 (ACL [1]; [5]) | pIC50 (ACL [2]; [6]) | IC50 (HepG2 cells [3]) [µM] | IC50 (HepG2 cells [4]) [µM] | pIC50 (ACL [1]) | pIC50 (ACL [2]) | pIC50 (ACL [2]; read-out: ACL-ADP-Glo (IC50))
COC(=O)c1cc(Cl)c(O)c(S(=O)(=O)Nc2cc(-c3ccccc3)c(F)cc2F)c1 [I-65, Methyl 3-chloro-5-[(2,4-difluoro-5-phenylphenyl)sulfamoyl]-4-hydroxybenzoate] | > 7.30 | – | > 10 | 5 to 20 | – | – | > 7.30
O=C(c1cc(Cl)c(O)c(S(=O)(=O)Nc2cc(-c3cc4ccccc4s3)c(F)cc2F)c1)N1CCC1 [I-138, 5-(azetidine-1-carbonyl)-N-[5-(1-benzothiophen-2-yl)-2,4-difluorophenyl]-3-chloro-2-hydroxybenzene-1-sulfonamide] | > 7.30 | > 7.30 | 1 to 10 | 1 to 5 | – | – | –
COc1ccc(-c2ccccc2)cc1NS(=O)(=O)c1cc(C(=O)N2CCC2)cc(Cl)c1O [I-145, 5-(azetidine-1-carbonyl)-3-chloro-2-hydroxy-N-[4-methoxy-[1,1-biphenyl]-3-yl]benzene-1-sulfonamide] | > 7.30 | > 7.30 | > 10 | 1 to 5 | – | – | –
